Data set [1] in a line: Acute toxicity (LD50), mice, oral. Particulars: mouse, in vivo. From the text:
(§1) The LD50 values for acyclovir, dilazep and dipyridamole, referred to above are as follows: […]

In data set [2] the test system is herpes simplex type 1 (KOS strain). Description: Plaque reduction assay in Vero cells infected with herpes simplex type 1 (KOS strain). It counts as cell-based. Particulars: single agent; for Average Plaque Count: controls = 480. The method, then: The antiviral activity was determined using a plaque reduction assay. Petri plates were seeded with Vero cells which were then allowed to grow to confluency. […] The inhibitors, either alone or in the indicated combinations, were dissolved to give the indicated concentrations in minimal essential medium containing 2% heat inactivated fetal calf serum and 0.5% human immune serum globulin. One hour after infection the solutions (10 ml per plate) were added to the cultures. Three days later the cultures were foramlin-fixed and stained with crystal violet, and the plaques were counted.

Data set [3] can be described thus: Acute toxicity (LD50), rats, oral. The note with it: rat, in vivo.
Description: as §1

[4] abbreviates: Human alphaherpesvirus 1, Vero, Conc. 1.0 μM.
Setting [5] is: Human alphaherpesvirus 1, Vero, Conc. 5.0 μM.

`Nc1nc2c(ncn2COCCO)c(=O)[nH]1` [ACV, 9-[(2-hydroxyethoxy)methyl]guanine]: the median lethal dose (LD50) in data set [1] (mice oral) is over 10000 mg/kg. In addition, the “Average Plaque Count” value in data set [2] (Conc. 1.0 μM) amounted to 279.5; in data set [2] (Conc. 2.5 μM), 133.5; in data set [2] (Conc. 5.0 μM), 29.5. In data set [2] (setting [4]), the inhibition at 1 µM was 41.8%. The inhibition at 2.5 µM in data set [2] (Human alphaherpesvirus 1, Vero, Conc. 2.5 μM) stood at 72.3%. Besides, in data set [2] (setting [5]), the inhibition at 5 µM amounted to 93.8%.

As to `O=[N+]([O-])c1ccc(CSc2ncnc3c2ncn3[C@@H]2O[C@H](CO)[C@@H](O)[C@H]2O)cc1` [Compound A, 6-[(4-nitrobenzyl)thio]-9-(β-D-ribofuranosyl)purine], in data set [2] (Conc. 2.0 μM), the “Average Plaque Count” value amounted to 484.0. The inhibition at 2 µM in data set [2] (Human alphaherpesvirus 1, Vero, Conc. 2.0 μM) worked out at 0%.

Compound `COc1cc(C(=O)OCCCN2CCCN(CCCOC(=O)c3cc(OC)c(OC)c(OC)c3)CC2)cc(OC)c1OC` [Dilazep] displayed an LD50 in data set [1] (male mice, oral) of 3740 mg/kg. Besides, the “Average Plaque Count” value in data set [2] (Conc. 1.0 μM) was found to be 442.0. For the same compound, in data set [2] (setting [4]), the inhibition at 1 µM turned out to be 8%.

In the case of `OCCN(CCO)c1nc(N2CCCCC2)c2nc(N(CCO)CCO)nc(N3CCCCC3)c2n1` [Dipyridamole], in data set [2] (Conc. 5.0 μM), the “Average Plaque Count” value turned out to be 474.0. Moreover, in data set [2] (setting [5]), the inhibition at 5 µM worked out at 1%. Moreover, the LD50 in data set [3] came out at 8400 mg/kg.

These data come from patent publication US4897394A, “Antiviral combinations” (Burroughs Wellcome CO., priority 1986, dated 1990).
